Literature values as cited in patent US11464838B2, “Optimized cancer stem cell vaccines” (COLORADO STATE UNIVERSITY RESEARCH FOUNDATION, priority 2015, dated 2022).

settings: in vivo

| SMILES | Biological Half-Life [hours] | Bioavailability [%] |
| --- | --- | --- |
| CCCCc1nc(Cl)c(CO)n1Cc1ccc(-c2ccccc2-c2nn[nH]n2)cc1 [Losartan] | 2 |  |
| CCCCC1=NC2(CCCC2)C(=O)N1Cc1ccc(-c2ccccc2-c2nnn[nH]2)cc1 [Irbesartan] |  | 70 |
| CCOc1nc2cccc(C(=O)O)c2n1Cc1ccc(-c2ccccc2-c2noc(=O)[nH]2)cc1 [Azilsartan] | 11 | 60 |
| CCCCc1ncc(/C=C(\Cc2cccs2)C(=O)O)n1Cc1ccc(C(=O)O)cc1 [Eprosartan] | 5 | 13 |
